In publication PMC11089204 (Frontiers in Pharmacology, 2024):

Experiments:
mice = system: mice; design: method as in Sherwood et al., 2020; conditions: ref Sherwood et al., 2020; cited from earlier work
recombinant CYP2D6 = biological target: T1, recombinant CYP2D6 (Homo sapiens, UniProt P10635); test: Incubation with recombinant CYP2D6 enzymes; format: in vitro ADME; conditions: rec. CYP2D6 with CYP2D6 inhibitor quinidine
T1 construct: purchased Corning Life Sciences B.V
Description: Corning UltraPool human liver microsomes (HLM) 150 (20 mg/mL), human intestinal microsomes (HIM) pool (10 mg/mL) as well as recombinant human CYP enzymes (with P450 oxidoreductase, OR) including CYP1A2+OR (0.5 nmol), CYP2B6+OR (0.5 nmol), CYP2C8+OR (1.0 nmol), CYP2C9*1+OR (1 nmol), CYP2C19+OR (0.5 nmol), CYP2D6*1+OR (0.5 nmol), CYP2E1+OR + cytochrome b5 (1 nmol), CYP3A4+OR + cytochrome b5 (0.5 nmol), MAO-A (5 mg/mL), MAO-B (5 mg/mL), and UGT1A10 (5 mg/mL) were purchased from Corning Life Sciences B.V (Amsterdam, Netherlands). All microsomes and recombinant enzyme solutions were aliquoted and stored at −80 °C until further use.
The total volume of the reaction mixture was 500 μL. […] Samples were either directly analyzed by liquid chromatography tandem mass spectrometry (LC-MS/MS) or briefly stored at −20°C until analysis.

[1] = Pharmacokinetics and metabolites in mouse plasma after oral psilocybin; format: in vivo, C57BL/6J mice; conditions: male, C57BL/6J, po; mouse plasma, 3 mg/kg psilocybin p.o., n = 5; read-out: tmax (mean ± SD)
Description: C57BL/6J adult male mice (Janvier, Le Genest-Saint-Isle, France) were maintained in littermate pairs in standard cages (containing sawdust, a sleeping chamber, tissue paper, and a wood stick) with water and pellet food available ad libitium. The colony room was on a reversed light-dark cycle (dark phase 07:00 to 19:00) with temperature at 22°C and humidity at 50–60%. A total of 10 mice were dosed orally with either 3 mg/kg bodyweight psilocybin (n = 5) or saline solution (n = 5). Dosing and blood sampling were conducted between 09:00 and 13:00. The mouse was placed in a plastic restrainer with the tail protruding through a hole in the end of the tube. The tail was immersed in warm water for 1 min for vasodilation and then a small incision was made on the lateral tail surface near the distal tip. 50 μL of blood was massaged gently into an EDTA-coated capillary blood tube (Mircovette, Sarstedt, Nümbrecht, Germany). The first (baseline) blood sample was collected directly before compound administration via oral gavage and the mouse was then returned to the home cage. Further blood samples were collected at 15, 30, 60, and 120 min post-treatment. Each sample was drawn from the same incision site, with mice maintained in the home cage in the intervening periods. The blood samples were stored on ice and centrifuged for 10 min at 780 × g and 4°C. Subsequently, the plasma was transferred into cryotubes (Protein LoBind, Eppendorf) and stored at −80 °C until analysis. All procedures were conducted under a permit for animal experimentation (ZH038/2022) issued by the Veterinary Office Zurich in accordance with the Animal Protection Act (1978) of Switzerland. The use of psilocybin was authorized by the Federal Office of Public Health (FOPH).
Pharmacokinetic parameters were calculated using Phoenix WinNonlin software (version 8.1.0, Certara, Princeton, USA). The elimination half-life (t1/2, min) was assessed as t1/2 = ln(2)/λ, while the elimination constant was calculated by linear regression in the terminal elimination phase. The maximal plasma concentration (Cmax, ng/mL) and the time to reach this concentration (tmax, h) were direct read-outs of the graphical plots.

[2] = Metabolites in human plasma after oral psilocybin (reanalysed study samples); conditions: 30 mg psilocybin p.o., n = 5
mouse 5-HT2A receptor = biological target: mouse 5-HT2A receptor; design: method as in Sherwood et al., 2020; conditions: Gq-dependent calcium flux, nearly full agonist; ref Sherwood et al., 2020; cited from earlier work

T1 sequence (P10635 whole entry): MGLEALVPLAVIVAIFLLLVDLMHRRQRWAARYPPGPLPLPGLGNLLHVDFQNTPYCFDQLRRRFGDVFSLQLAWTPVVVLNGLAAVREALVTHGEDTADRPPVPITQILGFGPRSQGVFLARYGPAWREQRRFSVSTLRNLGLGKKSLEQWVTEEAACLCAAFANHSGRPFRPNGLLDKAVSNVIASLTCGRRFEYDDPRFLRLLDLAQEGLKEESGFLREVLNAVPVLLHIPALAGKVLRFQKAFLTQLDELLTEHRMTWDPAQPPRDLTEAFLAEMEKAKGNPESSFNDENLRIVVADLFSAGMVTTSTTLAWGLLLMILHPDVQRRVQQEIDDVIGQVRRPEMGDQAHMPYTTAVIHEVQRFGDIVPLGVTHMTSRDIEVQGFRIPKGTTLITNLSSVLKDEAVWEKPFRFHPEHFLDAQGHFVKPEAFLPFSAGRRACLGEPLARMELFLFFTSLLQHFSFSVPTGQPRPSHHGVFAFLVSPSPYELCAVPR

SMILES: CNCCc1c[nH]c2cccc(O)c12 [norpsilocin, N-methyl-4-hydroxytryptamine]
- psychoactive properties in head-twitch response (mice): did not show any psychoactive properties
- metabolite formation on co-incubation with quinidine (recombinant CYP2D6): reduced and delayed formation
- Tmax [1]: ~15 min
- detection in human plasma [2]: neither norpsilocin nor 4-HTP was detected
- EC50 (mouse 5-HT2A receptor): < 10 nM
